# Data: patent US20180305334A1, “COMPOUNDS, COMPOSITIONS AND METHODS OF USE AGAINST STRESS GRANULES” (Aquinnah Pharmaceuticals, Inc., priority 2015, published 2018)
# pIC50: −log10 of the molar value.
# Test system: TDP-43 aggregation in PC12 cells stably expressing TDP-43^Q331K::eGFP
# Experiment: In vitro efficacy assay, TDP-43 aggregation concentration-response
# Type: cell-based
# Settings: Rattus norvegicus, PC-12, inhibition of TDP-43 aggregation; PC12 TDP-43^Q331K::eGFP, 1 hour pre-treatment, 15 μM sodium arsenite for 23 hours; 10-point dose response
# Description: Exemplary compounds of the invention were evaluated for efficacy in inhibiting TDP-43 inclusions using a concentration-response assay. Briefly, PC12 cells stably expressing a GFP-tagged mutant form of TDP-43 (TDP-43^Q331K::eGFP) were pre-treated for 1 hour with exemplary compounds and stressed with 15 μM sodium arsenite for 23 hours to induce TDP-43 aggregation. The inhibitory effect on TDP-43 aggregation was measured using fluorescence microscopy. The ratio of cells with TDP-43 aggregates was calculated based on the total number of cells with detectable GFP expression.
row,SMILES,pIC50
1,COc1cccc(CCN2CCCC(CN(CC3CCCCC3)C(=O)c3cc4ccccc4[nH]3)C2)c1 (stereo not drawn) [Compound 220],< 5.00
2,COc1cccc(CCNCCNC(=O)c2cc3ccccc3[nH]2)c1 [Compound 221],5.40 to 5.82
3,COc1cccc(CCN2CCCC(N(C)C(=O)c3cc4ccccc4[nH]3)C2)c1 (stereo not drawn) [Compound 222],< 5.00
4,CCN(CC1CCN(CCc2cccc(OC)c2)C1)C(=O)c1cc2ccccc2[nH]1 (stereo not drawn) [Compound 223],5.40 to 5.82
5,CCN(CC1CCCCN1CCc1cccc(OC)c1)C(=O)c1cc2ccccc2[nH]1 (stereo not drawn) [Compound 224],5.40 to 5.82
6,CCN(CC1CCCN(Cc2ccc(-c3nnn[nH]3)cc2)C1)C(=O)c1cc2ccccc2[nH]1 (stereo not drawn) [Compound 225],< 5.00
7,CCN(CC1CCCN(c2ccc(OC)cc2)C1)C(=O)c1cc2ccccc2[nH]1 (stereo not drawn) [Compound 227],5.40 to 5.82
8,CCN(CC1CCCN(c2cccc(OC)c2)C1)C(=O)c1cc2ccccc2[nH]1 (stereo not drawn) [Compound 228],< 5.00
9,CCN(CC1CCCN(CCc2cccc(OC)c2)C1)C(=O)c1cc(C)c[nH]1 (stereo not drawn) [Compound 229],5.40 to 5.82
10,CCN(CC1CCCN(CCc2cccc(OC)c2)C1)C(=O)c1ccc[nH]1 (stereo not drawn) [Compound 231],5.40 to 5.82
11,CCN(CC1CCCN(CCc2cccc(OC)c2)C1)C(=O)c1ccccc1 (stereo not drawn) [Compound 234],< 5.00
12,CCN(CC1CCCN(CCc2cccc(OC)c2)C1)C(=O)c1cc2ccccc2s1 (stereo not drawn) [Compound 235],5.40 to 5.82
13,CCN(CC1CCCN(CCc2cccc(OC)c2)C1)C(=O)c1ccccn1 (stereo not drawn) [Compound 236],< 5.00
14,CCN(CC1CCCN(CCc2cccc(OC)c2)C1)C(=O)c1ccc2ccccc2c1 (stereo not drawn) [Compound 237],5.40 to 5.82
15,CCN(CC1CCCN(CCc2cccc(OC)c2)C1)C(=O)c1cc2ccccc2n1CC (stereo not drawn) [Compound 238],5.40 to 5.82
16,CCN(CC1CCCN(CCc2cccc(OC)c2)C1)C(=O)C1Cc2ccccc2N1C (stereo not drawn) [Compound 239],< 5.00
17,CCN(CC1CCCN(CCc2cccc(OC)c2)C1)C(=O)c1nc2ccccc2n1C (stereo not drawn) [Compound 240],< 5.00
18,CCN(CC1CCCN(CCc2cccc(OC)c2)C1)C(=O)c1nc2ccccc2o1 (stereo not drawn) [Compound 241],< 5.00
19,CCN(CC1CCCN(CCc2cccc(OC)c2)C1)C(=O)c1cc(C#N)c[nH]1 (stereo not drawn) [Compound 242],5.40 to 5.82
20,CCN(CC1CCCN(CCc2cccc(OC)c2)C1)C(=O)c1cc2cc(OC)ccc2[nH]1 (stereo not drawn) [Compound 244],< 5.00
21,CCN(CC1CCCN(CCc2cccc(OC)c2)C1)C(=O)c1ccc(C)[nH]1 (stereo not drawn) [Compound 246],5.40 to 5.82

row,SMILES,pIC50
1,CCN(CC1CCCN(CCc2cccc(OC)c2)C1)C(=O)c1ccco1 (stereo not drawn) [Compound 247],5.15 to 5.40
2,CCN(CC1CCN(Cc2cccc(F)c2)CC1)C(=O)c1cc2ccccc2[nH]1 [Compound 252],< 5.00
3,O=C(NCC1CCNCC1)c1cc2ccccc2[nH]1 [Compound 264],5.40 to 5.82
4,COc1cccc(CC(=O)N2CCC(CNC(=O)c3cc4ccccc4[nH]3)CC2)c1 [Compound 322],5.40 to 5.82
5,COc1ccc(S(=O)(=O)N2CCC(CNC(=O)c3cc4ccccc4[nH]3)CC2)cc1 [Compound 325],< 5.00
6,CCN(CC1CCN(Cc2cc3ccccc3o2)CC1)C(=O)c1cc2ccccc2[nH]1 [Compound 327],5.00 to 5.15
7,CCN(CC1CCN(C2CCc3ccccc32)CC1)C(=O)c1cc2ccccc2[nH]1 (stereo not drawn) [Compound 328],5.15 to 5.40
8,CCN(CC1CCN(C(C)(C)Cc2ccccc2)CC1)C(=O)c1cc2ccccc2[nH]1 [Compound 333],< 5.00
9,CCN(CC1CCN(C(C)(C)Cc2cccc(F)c2F)CC1)C(=O)c1cc2ccccc2[nH]1 [Compound 342],< 5.00
10,CCN(CC1CCN(C(C)(C)Cc2ccccc2F)CC1)C(=O)c1cc2ccccc2[nH]1 [Compound 343],5.40 to 5.82
11,CCN(CC1CCN(C(C)(C)Cc2ccc(OC)cc2)CC1)C(=O)c1cc2ccccc2[nH]1 [Compound 344],< 5.00
12,CCN(CC1CCN(C(C)(C)Cc2ccc(F)cc2)CC1)C(=O)c1cc2ccccc2[nH]1 [Compound 345],5.40 to 5.82
13,CCN(CC1CCN(C(C)(C)CC2CCOCC2)CC1)C(=O)c1cc2ccccc2[nH]1 [Compound 365],5.40 to 5.82
14,CCN(CC1CCN(CC(C)(C)c2cc3ccccc3o2)CC1)C(=O)c1cc2ccccc2[nH]1 [Compound 405],5.15 to 5.40
15,CCN(CC1CCCN(CC(C)(C)c2cccc(OC)c2)C1)C(=O)c1cc2cc(OC)ccc2[nH]1 (stereo not drawn) [Compound 406],> 5.82
16,CCN(CC1CCCN(CC(C)(C)c2cccc(OC(F)(F)F)c2)C1)C(=O)c1cc2cc(OC(F)(F)F)ccc2[nH]1 (stereo not drawn) [Compound 407],< 5.00
17,CCN(CC1CCCN(CC(C)(C)c2cccc(OC(F)F)c2)C1)C(=O)c1cc2cc(OC(F)F)ccc2[nH]1 (stereo not drawn) [Compound 408],> 5.82
18,CCN(CC1CCCN(CC(C)(C)c2cc3ccccc3o2)C1)C(=O)c1cc2ccccc2[nH]1 (stereo not drawn) [Compound 409],5.40 to 5.82
19,CCN(CC1CCN(CC(F)(F)c2cccc(F)c2)CC1)C(=O)c1cc2ccccc2[nH]1 [Compound 410],5.40 to 5.82
20,CCN(CC1CCN(CC(F)(F)c2ccccc2)CC1)C(=O)c1cc2ccccc2[nH]1 [Compound 411],> 5.82

# Now from value to compound:
row,pIC50,SMILES
1,> 5.82,CCN(CC1CCCN(CCc2cccc(OC)c2)C1)C(=O)c1nc2ccccc2[nH]1 (stereo not drawn) [Compound 230]
2,> 5.82,CCN(CC1CCCN(CCc2cccc(OC)c2)C1)C(=O)c1c[nH]c2ccccc12 (stereo not drawn) [Compound 232]
3,> 5.82,CCN(CC1CCCN(CCc2cccc(OC)c2)C1)C(=O)c1coc2ccccc12 (stereo not drawn) [Compound 233]
4,> 5.82,CCN(CC1CCCN(CCc2cccc(OC)c2)C1)C(=O)c1cc2c([nH]1)CCCC2 (stereo not drawn) [Compound 243]
5,> 5.82,CCN(CC1CCCN(CCc2cccc(OC)c2)C1)C(=O)c1cn(C)c2ccccc12 (stereo not drawn) [Compound 248]
6,> 5.82,CCN(CC1CCCN(CCc2cccc(OC)c2)C1)C(=O)c1n[nH]c2ccccc12 (stereo not drawn) [Compound 249]
7,> 5.82,CCN(CC1CCNCC1)C(=O)c1cc2ccccc2[nH]1 [Compound 250]
8,> 5.82,COc1ccc(C(=O)N2CCC(CNC(=O)c3cc4ccccc4[nH]3)CC2)cc1 [Compound 321]
9,> 5.82,COc1ccc(CC(=O)N2CCC(CNC(=O)c3cc4ccccc4[nH]3)CC2)cc1 [Compound 323]
10,> 5.82,CCN(CC1CCN(C2CCc3ccc(OC)cc3C2)CC1)C(=O)c1cc2ccccc2[nH]1 (stereo not drawn) [Compound 329]
11,> 5.82,CCN(CC1CCN(C(C)(C)Cc2cccc(F)c2)CC1)C(=O)c1cc2ccccc2[nH]1 [Compound 330]
12,> 5.82,CCN(CC1CCN(C(C)(C)Cc2cccc(OC)c2)CC1)C(=O)c1cc2ccccc2[nH]1 [Compound 332]
13,> 5.82,CCN(CC1CCN(C(C)(C)Cc2cc3ccccc3o2)CC1)C(=O)c1cc2ccccc2[nH]1 [Compound 339]
14,> 5.82,CCN(CC1CCN(C(C)(C)c2cc3ccccc3o2)CC1)C(=O)c1cc2ccccc2[nH]1 [Compound 340]
15,> 5.82,CCN(CC1CCN(C(C)(C)Cc2ccc(Cl)cc2)CC1)C(=O)c1cc2ccccc2[nH]1 [Compound 341]
16,> 5.82,COc1cccc(CC(C)(C)N2CCC(CN(CC(F)(F)F)C(=O)c3cc4ccccc4[nH]3)CC2)c1 [Compound 350]
17,> 5.82,CC(C)(Cc1ccccc1)N1CCCC(CN(CC(F)(F)F)C(=O)c2cc3ccccc3[nH]2)C1 (stereo not drawn) [Compound 351]
18,> 5.82,CC(C)(Cc1cccc(F)c1)N1CCCC(CN(CC(F)(F)F)C(=O)c2cc3ccccc3[nH]2)C1 (stereo not drawn) [Compound 352]
19,> 5.82,CC(C)(Cc1cccc(F)c1)N1CCC(CN(CC(F)(F)F)C(=O)c2cc3ccccc3[nH]2)CC1 [Compound 353]
20,> 5.82,CC(C)(Cc1ccccc1)N1CCC(CN(CC(F)(F)F)C(=O)c2cc3ccccc3[nH]2)CC1 [Compound 354]
21,> 5.82,CCN(CC1CCCN(C(C)(C)c2ccc(OC)cc2)C1)C(=O)c1cc2ccccc2[nH]1 (stereo not drawn) [Compound 355]
22,> 5.82,CCN(CC1CCCN(C(C)(C)c2ccc(OC)cc2)C1)C(=O)c1cc2cc(OC)ccc2[nH]1 (stereo not drawn) [Compound 356]
23,> 5.82,CCN(CC1CCCN(C(C)(C)c2ccc(OC)cc2)C1)C(=O)c1cc2cc(Cl)ccc2[nH]1 (stereo not drawn) [Compound 357]
24,> 5.82,CCN(CC1CCN(C(C)(C)c2ccc(OC)cc2)CC1)C(=O)c1cc2ccccc2[nH]1 [Compound 358]
25,> 5.82,CCN(CC1CCN(C(C)(C)c2ccccc2)CC1)C(=O)c1cc2cc(OC)ccc2[nH]1 [Compound 359]
26,> 5.82,CCN(CC1CCN(C2(Cc3cccc(OC)c3)CC2)CC1)C(=O)c1cc2ccccc2[nH]1 [Compound 360]
27,> 5.82,CCN(CC1CCN(C(C)(C)Cc2cccc(OC)c2)CC1)C(=O)c1cc2ncccc2[nH]1 [Compound 363]
28,> 5.82,CCN(CC1CCN(C(C)(C)Cc2cccc(F)c2OC)CC1)C(=O)c1cc2ccccc2[nH]1 [Compound 364]

# Same assay, conditions: inhibition of TDP-43 aggregation; PC12 TDP-43^Q331K::eGFP, 1 hour pre-treatment, 15 μM sodium arsenite for 23 hours; 10-point dose response
row,pIC50,SMILES
1,5.40 to 5.82,CCN(CC1CCCN(C(C)(C)Cc2cccc(OC)c2)C1)C(=O)c1cc2ccccc2[nH]1 (stereo not drawn) [Compound 331]
2,> 5.82,CCN(CC1CCCN(C(C)(C)Cc2cccc(OC)c2)C1)C(=O)c1cc2cc(OC)ccc2[nH]1 (stereo not drawn) [Compound 334]
3,> 5.82,CCN(CC1CCCN(C(C)(C)Cc2cccc(Cl)c2)C1)C(=O)c1cc2ccccc2[nH]1 (stereo not drawn) [Compound 335]
4,> 5.82,CCN(CC1CCCN(C(C)(C)Cc2cccc(OC(F)F)c2)C1)C(=O)c1cc2cc(OC(F)F)ccc2[nH]1 (stereo not drawn) [Compound 336]
5,> 5.82,CCN(CC1CCCN(C(C)(C)Cc2cccc(OC(F)(F)F)c2)C1)C(=O)c1cc2cc(OC(F)(F)F)ccc2[nH]1 (stereo not drawn) [Compound 337]
6,> 5.82,CCN(CC1CCCN(C(C)(C)c2cc3ccccc3o2)C1)C(=O)c1cc2ccccc2[nH]1 (stereo not drawn) [Compound 338]
